Measurements as given in patent US4430342A, “N-Acyl-3-[4-(benzoylalkyl)piperazin-1-yl]-sydnonimine compound, process for prodction thereof, and use thereof” (Hidaka; Hiroyoshi, priority 1981, dated 1984).
Values after ≈ are worked out from the molar mass of the structure shown. Where a name gives a salt, the structure may show the parent alone. Read-outs that look alike come from different tables or passages of the source. Values belong to the molecule of their own block, whether it stands above or below them.

Legend:
[1] = tested on: extracted mesenteric artery of a rabbit; test: mesenteric artery relaxing activity, in vitro (extracted artery); settings: Oryctolagus cuniculus, read-out: Mesenteric artery relaxing activity (50% of the maximum relaxation)
Text: (§1) Table 1 summarizes the results of in vitro tests in which the human platelet aggregation inyibitory activity of the 3-[4-(benzoylalkyl)piperazin-1-yl]sydnonimines of formula (2) and their relaxing activity on the extracted mesenteric artery of a rabbit were examined.
(§2) The mesenteric artery relaxing activity is shown by the […] (μM) of a drug required to induce 50% of the maximum relaxation, and the platelet aggregation inhibiting activity, by the concentration (μM) of a drug required to inhibit collagen-induced platelet aggregation to an extent of 50%.

[2] = tested on: human platelet aggregation; test: collagen-induced human platelet aggregation inhibiting activity, in vitro; type: cell-based; settings: human platelets, read-out: Platelet aggregation inhibiting activity (50% inhibition)
Text: as §1, §2

[3] = water solubility of the salts; type: physicochemical
cerebral cortex = test: blood flow in the cerebral cortex (cross thermocouple method); type: in vivo, rabbit; settings: 0.5 mg/kg via retroauricular vein
Description: Male rabbits having a body weight of about 3 kg, five per group, were used. Under sodium pentobarbital anesthesia, a tracheal cannula was inserted into each rabbits, and under artificial respiration, 2 mg of gallamine triethiodide was intravenously injected to immobilize the animals. The animals were each fixed to a brain stereotaxic apparatus (Todai Noken type). An element of the double needle type (WN-301, manufactured by Unique Medical Co.) was inserted into the frontal contex through a hole provided by a dental drill, and variations in potential were recorded. After the blood flow was stabilized, the test drug and a control drug were each administered through a cannula inserted into the retroauricular vein of the right ear. The percent increase in the blood flow was calculated by taking the blood flow at death as 0 and the blood flow before drug administration as 100%. When the compound A (0.5 mg/kg) was administered as the test drug, the blood flow increased by 10 to 20%. But when the control drug, morsydmine, (0.5 mg/kg) was administered, no increase in the blood flow was noted.

amygdaloid nucleus = test: local cerebral blood flow, amygdaloid nucleus (hydrogen gas clearance method); type: in vivo, rabbit; settings: 0.5 mg/kg i.v.; until 1 hour after administration; based on blood flow before administration
Description: (a) Activity on the hippocampus and amygdaloid nucleus (by the hydrogen gas clearance method) Rabbits having a body weight of about 3 kg, five per group, were used. A tracheal cannula was inserted into each rabbit under sodium pentobarbital anesthesia, and under artificial respiration, gallamine triethiodide was intravenously administered in a dose of 2 mg/kg to immobilize it. The animal was then fixed to a brain stereotaxic apparatus (Todai Noken type). Gallamine triethiodide was also intramuscularly administered in a dose of 3 mg/kg every one hour.
The local cerebral blood flow was measured by the hydrogen gas clearance method (UH meter, PHG-201, manufactured by Unique Medical Co., Ltd.). Platinum electrodes having a diameter of 300 μm and coated with an epoxy resin were inserted in the hippocampus (P:4, L:5, H:+5) and the amygdaloid nucleus (A:2, L:6, H:-6) in accordance with the brain atlas of Sawyer et al. An indifferent electrode was placed under the skin of the head and fixed there. […] The resulting curve was plotted semilogarithmically, and the half-time period (T 1/2) was determined by the initial slope method. The blood flow was calculated from the following equation.
The blood flow was measured every thirty minutes. […]

[4] = tested on: extracted heart of a guinea pig; test: coronary blood flow, Langendorf's method, extracted heart; settings: 0.1 ml of 10^-4 g/ml solution injected
Description: The increase or decrease of the coronary blood flow was examined by the Langendorf's method using the extracted heart of a guinea pig. […] On the other hand, when 0.1 ml of morsydmine (10^-4 g/ml solution) was injected, no increase in the coronary blood flow was observed.

[5] = acute toxicity in male dd-strain mice; settings: mouse, in vivo
Description: The acute toxicity of the in vivo active type of this typical compound as a prodrug was tested by using male dd-strain mice (body weight 16 to 20 g).

[6] = solubility in water, dilute hydrochloric acid and Carmody's buffer by absorbance at 317 nm; type: physicochemical; settings: 25° C.
Description: The solubility of the N-ethoxycarbonyl-3-[4-(4-benzoylbutyl)piperazin-1-yl]sydnonimine obtained in Example 1 in water dilute hydrochloric acid and the Carmody's buffer was measured by the absorbance of the solution at 317 nm.

- EC50 [1]: 200 nM
- IC50 [2]: 3400 nM
Structure (SMILES): [NH-]c1c[n+](N2CCN(CCCCC(=O)c3ccccc3)CC2)no1 [R = H, n = 3, 3-[4-(4-benzoylbutyl)piperazin-1-yl]sydnonimine dihydrochloride]

- EC50 [1]: 160 nM
- IC50 [2]: 140 nM
Structure (SMILES): [NH-]c1c[n+](N2CCN(CC(=O)c3ccccc3)CC2)no1 [R = H, n = 0, 3-[4-(benzoylmethyl)piperazin-1-yl]sydnonimine dihydrochloride]

- EC50 [1]: 58 nM
- IC50 [2]: 28 nM
Structure (SMILES): [NH-]c1c[n+](N2CCN(CCCCCCCCC(=O)c3ccccc3)CC2)no1 [R = H, n = 7, 3-[4-(8-benzoyloctyl)piperazin-1-yl]sydnonimine dihydrochloride]

- EC50 [1]: 2300 nM
- IC50 [2]: 5400 nM
Structure (SMILES): [NH-]c1c[n+](N2CCN(CCCC(=O)c3ccccc3)CC2)no1 [R = H, n = 2]

- EC50 [1]: 120 nM
- IC50 [2]: 940 nM
Structure (SMILES): [NH-]c1c[n+](N2CCN(CCCCCCC(=O)c3ccccc3)CC2)no1 [R = H, n = 5]

- IC50 [2]: 11000 nM
Structure (SMILES): CC(C)CC(CCCN1CCN([n+]2cc([NH-])on2)CC1)C(=O)c1ccccc1 (stereo not shown) [R = iso-C4 H9, n = 3, 3-[4-(benzoyl-6-methylheptyl)piperazin-1-yl]sydnonimine dihydrochloride]

- EC50 [1]: 3000 nM
- IC50 [2]: 6300 nM
Structure (SMILES): [NH-]c1c[n+](N2CCN(CCCCCC(=O)c3ccccc3)CC2)no1 [R = H, n = 4]

More lines, now with the values behind:

Structure (SMILES): CCOC(=O)[N-]c1c[n+](N2CCN(CCCCC(=O)c3ccccc3)CC2)no1 [Hydrochloride, N-ethoxycarbonyl-3-[4-(4-benzoylbutyl)-piperazin-1-yl]sydnonimine]
- Solubility in water [3]: 0.89%

Structure (SMILES): CCOC(=O)[N-]c1c[n+](N2CCOCC2)no1 [morsydmine]
- blood flow in the cerebral cortex, result in words (cerebral cortex): no increase
- increase of local cerebral blood flow at the amygdaloid nucleus (amygdaloid nucleus): about 15%
- coronary blood flow, result in words [4]: no increase

Structure (SMILES): CCOC(=O)[N-]c1c[n+](N2CCN(CCCCC(=O)c3ccccc3)CC2)no1 [Nitrate, N-ethoxycarbonyl-3-[4-(4-benzoylbutyl)-piperazin-1-yl]sydnonimine]
- Solubility in water [3]: 0.43%

Structure (SMILES): CCOC(=O)[N-]c1c[n+](N2CCN(CCCCC(=O)c3ccccc3)CC2)no1 [Compound A]
- LD50 ([5]; intravenous administration): 91 mg/kg
- LD50 ([5]; oral administration): 750 mg/kg
- LD50 ([5]; sc, subcutaneous administration): 350 mg/kg
- activation at 100 µg/mL ([4]; Cavia porcellus, read-out: increase in the coronary blood flow): 14%

Structure (SMILES): CCOC(=O)[N-]c1c[n+](N2CCN(CCCCC(=O)c3ccccc3)CC2)no1 [Compound A, N-carboethoxy-3-[4-(4-benzoylbutyl)piperazin-1-yl]sydnonimine]
- solubility ([6]; 0.001 n hydrochloric acid, 0.001 N (pH 3), read-out: Solubility in dilute hydrochloric acid): 2300 µg/mL (≈ 5.73 mM)
- solubility ([6]; 0.01 n hydrochloric acid, 0.01 N (pH 2), read-out: Solubility in dilute hydrochloric acid): 6300 µg/mL (≈ 15.7 mM)
- solubility ([6]; 0.1 n hydrochloric acid, 0.1 N (pH 1), read-out: Solubility in dilute hydrochloric acid): 10400 µg/mL (≈ 25.9 mM)
- solubility ([6]; carmody's buffer, pH 2, read-out: Solubility in Carmody's buffer): 15600 µg/mL (≈ 38.9 mM)
- solubility ([6]; carmody's buffer, pH 3, read-out: Solubility in Carmody's buffer): 9300 µg/mL (≈ 23.2 mM)
- solubility ([6]; carmody's buffer, pH 4, read-out: Solubility in Carmody's buffer): 4400 µg/mL (≈ 11 mM)
- solubility ([6]; carmody's buffer, pH 5, read-out: Solubility in Carmody's buffer): 1000 µg/mL (≈ 2.49 mM)
- solubility ([6]; carmody's buffer, pH 6, read-out: Solubility in Carmody's buffer): 400 µg/mL (≈ 0.996 mM)
- solubility ([6]; carmody's buffer, pH 7, read-out: Solubility in Carmody's buffer): 100 µg/mL (≈ 0.249 mM)
- solubility ([6]; water, read-out: Solubility in water): 10 µg/mL (≈ 0.0249 mM)

Structure (SMILES): CCOC(=O)[N-]c1c[n+](N2CCN(CCCCC(=O)c3ccccc3)CC2)no1 [Oxalate, N-ethoxycarbonyl-3-[4-(4-benzoylbutyl)-piperazin-1-yl]sydnonimine]
- Solubility in water [3]: 0.46%

Structure (SMILES): CCOC(=O)[N-]c1c[n+](N2CCN(CCCCC(=O)c3ccccc3)CC2)no1 [Maleate, N-ethoxycarbonyl-3-[4-(4-benzoylbutyl)-piperazin-1-yl]sydnonimine]
- Solubility in water [3]: 0.94%
